Test results as given in US6849612B2, “Oligonucleotide modulation of cell adhesion” (ISIS Pharmaceuticals, Inc., priority 1993, dated 2005).
Strand notation (5' to 3'): a small letter for the sugar, then the base; units joined by * are phosphorothioate-linked, units joined directly phosphodiester-linked; [ ] holds rarer units or linkages, { } end groups; capitals alone tell only the bases. d = 2'-deoxy (DNA)

Experiments:
ICAM-1 = test: ELISA of ICAM-1 cell surface expression in oligonucleotide-pretreated, cytokine-stimulated HUVEC; type: cell-based, human; conditions: HUVEC, interleukin-1β; concentration not given
[1] = test system: corneal allograft rejection; test: Rat corneal allograft rejection (ACI donor to Lewis recipient); type: in vivo

Substance | inhibition of ICAM-1 expression (ICAM-1) | corneal edema vs OPTISOL alone group ([1]; day 3 post-surgery) | grading for cornea opacity and neovascularization, better than OPTISOL alone group ([1]; day 3 post-surgery) [%] | average days to rejection ([1]; donor corneas incubated 24 hours in OPTISOL plus 400 μg/ml oligonucleotide, OPTISOL alone 4.80 days) [days] | range of days to rejection ([1]; donor corneas incubated 24 hours in OPTISOL plus oligonucleotide) [days] | increase of days to rejection ([1]; over the 24 hour OPTISOL incubation control group) [%]
ISIS 1558: P=O oligonucleotide, human ICAM-1 AUG Codon (64-81), SEQ ID NO 1, TGGGAGCCATAGCGAGGC (unmodified DNA) | did not inhibit expression of ICAM-1 |  |  |  |  | 
ISIS 9125: rat ICAM-1 antisense, AGGGCCACTGCTCGTCCACA, all 2′-deoxyphosphorothioate (SEQ ID NO: 86) (antisense dA*dG*dG*dG*dC*dC*dA*dC*dT*dG*dC*dT*dC*dG*dT*dC*dC*dA*dC*dA) |  | more corneal edema | 50 | 6.33 | 6 to 10 | 25
